Experimental data: article PMC12236907, “A Natural Depsipeptide Antibiotic that Targets the E site of the Bacterial Ribosome” (Research Square, 2025)
Where a SMILES comes first, the peptide text is derived from it. Bridges are numbered along the chain shown (N, C = ends). [ ]: non-standard residue; d: D form. dOrn = NCCC[C@@H](N)C(=O)O

What was measured:
[1] = system: 70S ribosome (50S subunit); test: Cryo-EM of MKM-stalled ribosome complexes; type: binding, E. coli; details: ermBL MKM-SRC, 50 μM MKM
Experimental: MKM-ribosome complexes were generated by in vitro translation reactions in the PURExpress In vitro Protein Synthesis Kit (NEB) as described by the manufacturer. Complex formation reactions were carried out on ermBL toeprint mRNA template (Supplementary Table 7) in a 75 μl of reaction in presence of 50 μM MKM. The reaction was incubated for 15 min at 37 °C. The reaction volume was then split: 69 μl were used for complex generation and 6 μl were further analyzed by toeprinting. Ribosome complexes were isolated by centrifugation in 900 μl of sucrose gradient buffer (containing 40% sucrose, 50 mM HEPES-KOH, pH 7.4, 100 mM KOAc, 25 mM Mg(OAc)2 and 6 mM 2-mercaptoethanol) for 3 h at 4 °C with 80,000 g in a Optima Max-XP Tabletop Ultracentrifuge with a TLA 120.2 rotor. […]
Cryo-EM grids were prepared by applying 3.5 μl of MKM-70S complexes onto freshly glow-discharged Quantifoil R3.5/1 grids (copper, 300 mesh, with an additional 3 nm carbon layer; Product: C3-C19nCu30–01). […]
Movies were captured at a nominal magnification of 105,000×, corresponding to a calibrated pixel size of 0.832 Å (0.416 Å in super-resolution mode, binned 2× via EPU). […] Each exposure lasted 1.95 seconds in nanoprobe mode, during which 35 frames were recorded at a dose rate of ~1.14 electrons per frame per Å^2, resulting in a total accumulated dose of approximately 40 electrons per Å^2 (~15 e^−/px/s over vacuum). […]

E. coli ribosome = test: In vitro translocation assay; type: biochemical; details: mRNA MFK; 50 μM MKM or 250 μM negamycin; 1 μM E. coli ribosomes
Experimental: In vitro translocation assay was carried out using the model mRNA MFK (Supplementary Table 7) as described in the reference. The mRNA was prepared by in vitro transcription of a PCR product amplified using the primers MF_F1, MF_F2, and MF_R (Supplementary Table 6). A 4.5 μl reaction containing 1 μM E. coli ribosomes, 0.5 μM mRNA, 1 μM tRNAi^Met, 0.5 μM radiolabelled NV1 primer (Supplementary Table 6), 2 U/μl RiboLock RNase Inhibitor (Thermo), and antibiotic tested (50 μM MKM or 250 μM negamycin) in Pure System Buffer (PSB; 9 mM Mg(CH3COO)2, 5 mM K3PO4, 95 mM potassium glutamate, 5 mM NH4Cl, 0.5 mM CaCl2, 1 mM spermidine, 8 mM putrescine, 1 mM dithiothreitol, pH 7.3)[87] was incubated for 20 min at 37°C. Then N-acetyl-Phe-N-tRNAPhe, in which amino acid is attached to the tRNA’s A3’ hydroxyl via an amide bond, was added to the final concentration of 2 μM followed by 10 min incubation at 37°C. After addition of the E. coli EF-G and GTP to the final concentrations of 0.2 μM and 533 μM, respectively and incubation for 5 min at 30°C, 1 μl of the mixture of AMV reverse transcriptase (Roche) and dNTPs (2.1 U/μl AMV RT and 2 mM dNTPs in PSB) was added, and the reactions were incubated for another 5 min at 30°C. […]

E. coli = test: Antimicrobial activity, E. coli; type: cell-based, Escherichia coli
E. coli BW25113 = test: Time-dependent killing assay, E. coli; type: cell-based; details: E. coli BW25113, MHB, 5×MIC (160 μg/ml), 37°C, 0-24 h; mean of three biological replicates
Experimental: E. coli BW25113 and Klebsiella pneumoniae C1559 were grown overnight in 5 ml of cation-adjusted Mueller-Hinton Broth. The cultures were then inoculated into fresh medium to achieve an OD600 of 0.1, corresponding to a concentration of 10^8 CFU/ml. […] Samples were taken at 0 h, 3 h, 6 h, and 24 h post-incubation, plated on MHA plates, and incubated for 20–24 hours at 37°C. Colony counts were used to determine the log reduction in CFU/ml, comparing treated strains to untreated control samples.

Compound: C[C@@H](O)[C@@H]1NC(=O)[C@@H](CCCNC(=N)N)NC(=O)[C@@H](CCCNC(=N)N)NC(=O)[C@@H](CC(N)=O)NC(=O)[C@@H](NC(=O)[C@@H](Cc2ccccc2)NC(=O)[C@@H](CCCN)NC(=O)[C@H](N)CCCNC(=N)N)[C@@H](C)OC(=O)[C@H](Cc2c[nH]cn2)NC1=O [MKM, manikomycin A] (H-[dR][dOrn][dF]T[dN][dR][dR]TH; ester 4-C)
- second binding site [1]: at the back of the 50S subunit
- primary binding site ([1]; 2.4 Å focused refinement on 50S): located within the E site of the 50S subunit
- inhibition of EF-G-dependent translocation (E. coli ribosome): notably inhibited
- antimicrobial activity (E. coli): selective antimicrobial activity
- time-kill effect (E. coli BW25113): bactericidal
